Measured values published in paper PMC8708390, “Fatty Acid Modification of the Anticancer Peptide LVTX-9 to Enhance Its Cytotoxicity against Malignant Melanoma Cells” (Toxins, 2021).
Where no end group is shown, it is not given here.

What was measured:
[1] = test system: B16-F10 tumor spheroids; assay: Toxicity in 3D tumor spheroids; format: cell-based, mouse; details: 50 or 25 μM, RPMI-1640 with 10% serum, 3 days
Method: To further study the toxicity of LVTX-9 and LVTX-9-C18 in vitro, B16-F10 tumor spheroids, as 3D tumor models, were cultured according to protocols in the literature. Briefly, B16-F10 cells were seeded into an ultra-low attachment, 96-well, round-bottom plate (Corning) and cultured at 37 °C for 3–4 days. Then, the B16-F10 tumor spheroids were treated with 50 or 25 μM of LVTX-9 and 20 or 10 μM of LVTX-9-C18 in the RPMI-1640 supplied with 10% serum for 3 days. Subsequently, images were taken on days 0 and 3, and the cell viability was measured using a CellTiter-Glo 3D Cell Viability Assay (G9683).

[2] = test system: B16-F10 cells; assay: Scanning electron microscopy of cell membrane; format: cell-based, mouse; details: 50 μM, 24 h
Method: The morphologic changes of the cell membrane of B16-F10 cells treated with peptides were observed by SEM [14]. The cells were seeded on coverslips and placed into a six-well plate, then treated with LVTX-9 (50 μM) and LVTX-9-C18 (5 μM) for 24 h. After incubation, the B16-F10 cells were washed with sterile PBS gently three times and fixed with 2 mL of 2.5% glutaraldehyde solution in each well for 4 h at room temperature. Then, the fixed cells were dehydrated with a series of ethanol concentrations. We dried the samples with a Critical Point Dryer and coated them with gold plating before observation. A scanning electron microscope (Hitachi Su8010, Tokyo, Japan) was used to examine the prepared samples.

[3] = test system: B16-F10 cells; assay: CCK-8 cell viability assay, B16-F10 cells; format: cell-based, mouse; details: 50 μM, 24 h of treatment, serum-free medium (Figure 3B)
Method: Mouse skin melanoma cells (B16-F10) were cultured in RPMI-1640 (Gibco), and mouse fibroblast cells (L-929), human lung carcinoma cells (A549), mouse breast cells (4T1), human hepatocarcinoma cells (HepG2), and human cervical carcinoma cells (Hela) were cultured in Dulbecco’s Modified Eagle Medium (DMEM, Gibco). All culture medium contained 10% fetal bovine serum (serum, Gibco), 100 U/mL of penicillin, and […] of streptomycin at 37 °C with 5% CO2.
Cell viability was quantified using a CCK-8 assay. At first, cells were seeded into a 96-well plate at approximately 2 × 10^3 cells/well. The following day, we created a 2-fold dilution series of each peptide using fresh medium (with or without 10% serum) for the treated cells, and cell viability was detected at 450 nm via a CCK-8 assay using an Absorbance Microplate Reader (BioTek Instruments, Winooski, VT, USA) following 24 h of drug incubation. The activity curves and IC50 values of the peptides were visualized using GraphPad prism 5.0.

[4] = test system: B16-F10 cells; assay: Trypan blue staining; format: cell-based, mouse; details: 50 μM, 24 h, 0.04% trypan blue 4 min
Method: B16-F10 cells were seeded into a 48-well plate (2 × 10^3 cells/well) for 24 h and treated with LVTX-9 (50 μM) and LVTX-9-C18 (5 μM) for 24 h. The cells were washed with PBS gently and stained with 0.04% Trypan blue for 4 min. Dead cells were stained blue.

[5] = RP-HPLC retention time as measure of hydrophobicity; format: physicochemical; details: chromatographic, Vydac C18 300 Å 4.6 × 250 mm, 1.0 mL/min, gradient 30-100% acetonitrile/0.1% TFA, 215 nm, column 25 ± 5 °C; maximum height of peak
Method: Peptides were synthesized using the Fmoc SPPS methods. Briefly, the peptide LVTX-9 (AC-[…]-amide) was prepared on Rink Amide AM resin at a 0.2 mmol scale. A 4-fold excess of the Fmoc-protected amino acids was coupled with the Rink Amide AM resin using HCTU and HOBT as the activating agents in 5% NMM/DMF. After the synthesis of LVTX-9, the N-terminal Fmoc group was removed using 20% piperidine. As in the previous steps, a series of fatty acids (C12-C20) was activated in HCTU and HOBT using 5% NMM/DMF, and coupled to peptidyl resin for 2 h. Peptides were cleaved using trifluoroacetic acid (TFA)/thioanisole (TIS)/anisole (95:3:2 (v/v)) for 2.5 h, and the collected lysate was precipitated in cold diethyl ether three times. The precipitate was air-dried naturally. Next, the obtained crude products were purified using RP-HPLC (C18, 4.6 mm × 250 mm) on the basis of a 0.1% TFA/acetonitrile gradient from 30% to 100% in 46 min. Then, we collected the eluted peptides and determined the molecular mass using MALDI-TOF MS (AB, SCIEX, Waltham, MA, USA).
Figure 2 Purification and identification of five lipopeptides using RP-HPLC and MALDL-TOF MS: The purification of (A) LVTX-9-C12, (B) LVTX-9-C14, (C) LVTX-9-C16, (D) LVTX-9-C18, and (E) LVTX-9-C20 was performed using RP-HPLC (column, Vydac, C18, 300 Å, 4.6 × 250 mm). The lipopeptides were separated at a flow rate of 1.0 mL/min under a gradient of 30–100% acetonitrile/0.1% TFA. The elution of lipopeptides was monitored at 215 nm. Identification of (F) LVTX-9-C12, (G) LVTX-9-C14, (H) LVTX-9-C16, (I) LVTX-9-C18, and (J) LVTX-9-C20 by MALDI-TOF MS, respectively. The red star (*) represents the target peak. […]
Table S1. Purification gradient of peptides.
Time (min) Flow Rate (mL/min) A% B%
Wavelength: 215 nm/280 nm, column temperature: 25 ± 5 ℃, A: ddH2O (0.1% TFA), B: acetonitrile
(1 picture or pasted object on this page, not shown here)

[6] = test system: B16-F10 cells; assay: LDH leakage assay; format: cell-based, mouse; details: 25 μM, 24 h, absorbance 490 nm, n = 3
Method: At first, the B16-F10 cells were cultured in 96-well plates for 24 h at approximately 2 × 10^3 cells/well. Subsequently, the cells were treated for 24 h with LVTX-9 or LVTX-9-C18 with a series of concentration gradients. LDH leakage detection was detected using an LDH Cytotoxicity Assay Kit according to the manufacturer’s instructions (Beyotime, Shanghai, China. C0017). The absorption was measured using an Absorbance Microplate Reader (BioTek Instruments) at 490 nm. The LDH release (%) of peptides was calculated by GraphPad prism 5.0.

ASIGALIQKAIALIKAKAA-NH2 (C-terminus assumed) [LVTX-9]
growth of B16-F10 tumor spheroids at 50 or 25 μM [1]: gradually grew | cell membrane morphology by SEM at 50 μM [2]: intact membranes with smooth surfaces | effect on cell viability at 50 μM [3]: no significant effect on cell viability | trypan blue staining at 50 μM [4]: almost unstained | TR (retention time, RP-HPLC; indicates the hydrophobicity of the peptides) [5]: 15.21 min | LDH release at 25 μM [6]: ~ 2%
